Test results from the NIST ThermoML archive (doi:10.1007/s10765-011-1052-5).
Values joined by “and” are separate entries in the source; they are usually repeats but may differ in a detail not shown here. Equal entries are not always repeated.

Conditions: Fluid (supercritical or subcritical phases), Hot wire method

[HH] [hydrogen]
Conditions | thermal conductivity
323.19 K, 5191 kPa | 0.2032 W/m/K
323.19 K, 5193 kPa | 0.2032 W/m/K
323.19 K, 10094 kPa | 0.2067 W/m/K
323.19 K, 10100 kPa | 0.2065 W/m/K
323.2 K, 261 kPa | 0.1971 W/m/K and 0.197 W/m/K
323.2 K, 266 kPa | 0.1971 W/m/K
323.2 K, 267 kPa | 0.1973 W/m/K
323.2 K, 5186 kPa | 0.2029 W/m/K
323.2 K, 5188 kPa | 0.2031 W/m/K
323.2 K, 5190 kPa | 0.2031 W/m/K
323.2 K, 10084 kPa | 0.2067 W/m/K
323.2 K, 10087 kPa | 0.2067 W/m/K
323.2 K, 10095 kPa | 0.2065 W/m/K
323.2 K, 19987 kPa | 0.2147 W/m/K
323.2 K, 19989 kPa | 0.2142 W/m/K
323.2 K, 19998 kPa | 0.2146 W/m/K
323.2 K, 20000 kPa | 0.2142 W/m/K
323.2 K, 39984 kPa | 0.2311 W/m/K
323.2 K, 39993 kPa | 0.2306 W/m/K
323.2 K, 40006 kPa | 0.2312 W/m/K
323.2 K, 40011 kPa | 0.2304 W/m/K
323.2 K, 40020 kPa | 0.2313 W/m/K
323.2 K, 59948 kPa | 0.2488 W/m/K
323.2 K, 59968 kPa | 0.2483 W/m/K
323.2 K, 59985 kPa | 0.2488 W/m/K
323.2 K, 59986 kPa | 0.2482 W/m/K
323.2 K, 79963 kPa | 0.2659 W/m/K
323.2 K, 79984 kPa | 0.2654 W/m/K
323.2 K, 80001 kPa | 0.2659 W/m/K
323.2 K, 80012 kPa | 0.2648 W/m/K
323.2 K, 80034 kPa | 0.2657 W/m/K
323.2 K, 97707 kPa | 0.2804 W/m/K
323.2 K, 97716 kPa | 0.282 W/m/K
323.2 K, 97745 kPa | 0.2813 W/m/K
323.2 K, 97753 kPa | 0.2816 W/m/K
323.2 K, 97762 kPa | 0.2814 W/m/K
323.21 K, 19980 kPa | 0.2147 W/m/K
323.21 K, 59935 kPa | 0.2488 W/m/K
373.22 K, 598 kPa | 0.2223 W/m/K and 0.2224 W/m/K
373.22 K, 599 kPa | 0.2225 W/m/K
373.22 K, 5170 kPa | 0.2262 W/m/K and 0.226 W/m/K and 0.2261 W/m/K
373.22 K, 70084 kPa | 0.2757 W/m/K and 0.2758 W/m/K
373.22 K, 70086 kPa | 0.2758 W/m/K
373.22 K, 98187 kPa | 0.2983 W/m/K
373.22 K, 98197 kPa | 0.2988 W/m/K
373.23 K, 599 kPa | 0.2224 W/m/K
373.23 K, 4315 kPa | 0.2265 W/m/K
373.23 K, 4316 kPa | 0.2258 W/m/K and 0.2256 W/m/K
373.23 K, 5171 kPa | 0.2262 W/m/K
373.23 K, 10126 kPa | 0.2289 W/m/K
373.23 K, 10127 kPa | 0.2291 W/m/K
373.23 K, 10219 kPa | 0.2296 W/m/K and 0.2295 W/m/K and 0.2298 W/m/K
373.23 K, 30052 kPa | 0.2428 W/m/K and 0.2427 W/m/K
373.23 K, 30053 kPa | 0.2422 W/m/K
373.23 K, 30119 kPa | 0.2438 W/m/K
373.23 K, 30120 kPa | 0.2437 W/m/K and 0.2433 W/m/K
373.23 K, 30122 kPa | 0.2432 W/m/K
373.23 K, 49936 kPa | 0.2599 W/m/K and 0.2582 W/m/K and 0.2587 W/m/K
373.23 K, 50144 kPa | 0.2589 W/m/K and 0.2588 W/m/K
373.23 K, 69997 kPa | 0.2756 W/m/K
373.23 K, 69998 kPa | 0.2753 W/m/K and 0.2751 W/m/K
373.23 K, 97555 kPa | 0.3001 W/m/K
373.23 K, 97558 kPa | 0.2995 W/m/K
373.23 K, 97560 kPa | 0.2989 W/m/K
373.23 K, 98190 kPa | 0.2987 W/m/K
373.23 K, 98193 kPa | 0.2983 W/m/K
373.24 K, 10126 kPa | 0.2296 W/m/K
423.25 K, 5114 kPa | 0.2475 W/m/K
423.25 K, 10105 kPa | 0.2494 W/m/K and 0.2502 W/m/K
423.25 K, 30087 kPa | 0.262 W/m/K and 0.2619 W/m/K and 0.2615 W/m/K
423.25 K, 50102 kPa | 0.2764 W/m/K
423.25 K, 70147 kPa | 0.2939 W/m/K
423.25 K, 70150 kPa | 0.2927 W/m/K
423.25 K, 70155 kPa | 0.2923 W/m/K
423.25 K, 96975 kPa | 0.314 W/m/K
423.25 K, 96978 kPa | 0.3137 W/m/K
423.25 K, 96980 kPa | 0.3142 W/m/K
423.26 K, 403 kPa | 0.2426 W/m/K
423.26 K, 404 kPa | 0.2418 W/m/K
423.26 K, 5113 kPa | 0.2477 W/m/K
423.26 K, 5114 kPa | 0.2476 W/m/K
423.26 K, 10104 kPa | 0.2499 W/m/K
423.26 K, 50100 kPa | 0.2771 W/m/K and 0.2762 W/m/K
423.27 K, 400 kPa | 0.2421 W/m/K
423.27 K, 402 kPa | 0.2431 W/m/K
473.27 K, 10065 kPa | 0.2681 W/m/K and 0.2687 W/m/K
473.27 K, 30123 kPa | 0.2799 W/m/K
473.27 K, 30124 kPa | 0.28 W/m/K and 0.2803 W/m/K
473.27 K, 70155 kPa | 0.3079 W/m/K
473.27 K, 70156 kPa | 0.3088 W/m/K
473.27 K, 70160 kPa | 0.3069 W/m/K
473.27 K, 97457 kPa | 0.3277 W/m/K
473.27 K, 97459 kPa | 0.3262 W/m/K
473.27 K, 97460 kPa | 0.3282 W/m/K
473.28 K, 407 kPa | 0.2609 W/m/K
473.28 K, 408 kPa | 0.261 W/m/K
473.28 K, 409 kPa | 0.2611 W/m/K
473.28 K, 5166 kPa | 0.2673 W/m/K
473.28 K, 5167 kPa | 0.267 W/m/K and 0.2671 W/m/K
473.28 K, 10065 kPa | 0.2691 W/m/K
473.28 K, 50176 kPa | 0.294 W/m/K
473.28 K, 50178 kPa | 0.2937 W/m/K
473.28 K, 50179 kPa | 0.292 W/m/K
473.29 K, 408 kPa | 0.2613 W/m/K
573.26 K, 50202 kPa | 0.3283 W/m/K
573.26 K, 50208 kPa | 0.3253 W/m/K
573.26 K, 96979 kPa | 0.356 W/m/K
573.26 K, 96990 kPa | 0.3549 W/m/K
573.26 K, 97001 kPa | 0.3548 W/m/K
573.27 K, 5202 kPa | 0.3043 W/m/K and 0.3057 W/m/K and 0.3047 W/m/K
573.27 K, 10155 kPa | 0.3066 W/m/K and 0.3072 W/m/K
573.27 K, 10156 kPa | 0.3066 W/m/K
573.27 K, 30167 kPa | 0.3171 W/m/K and 0.3173 W/m/K and 0.3175 W/m/K
573.27 K, 50204 kPa | 0.3274 W/m/K
573.27 K, 70099 kPa | 0.3376 W/m/K
573.27 K, 70106 kPa | 0.3381 W/m/K
573.27 K, 70114 kPa | 0.3387 W/m/K
573.28 K, 365 kPa | 0.2934 W/m/K
573.28 K, 367 kPa | 0.2929 W/m/K
573.28 K, 369 kPa | 0.2931 W/m/K
672.87 K, 30056 kPa | 0.3514 W/m/K
672.87 K, 30063 kPa | 0.3522 W/m/K
672.87 K, 30074 kPa | 0.3514 W/m/K
672.87 K, 50096 kPa | 0.36 W/m/K
672.87 K, 50118 kPa | 0.3625 W/m/K
672.87 K, 98041 kPa | 0.3854 W/m/K
672.87 K, 98074 kPa | 0.3853 W/m/K
672.87 K, 98109 kPa | 0.3873 W/m/K
672.88 K, 5137 kPa | 0.342 W/m/K
672.88 K, 5140 kPa | 0.344 W/m/K
672.88 K, 5143 kPa | 0.3429 W/m/K
672.88 K, 5147 kPa | 0.343 W/m/K
672.88 K, 10059 kPa | 0.3459 W/m/K
672.88 K, 10060 kPa | 0.3456 W/m/K
672.88 K, 10061 kPa | 0.3445 W/m/K
672.88 K, 50107 kPa | 0.3616 W/m/K
672.88 K, 70012 kPa | 0.3693 W/m/K
672.88 K, 70030 kPa | 0.3711 W/m/K
672.88 K, 70044 kPa | 0.3699 W/m/K
672.89 K, 304 kPa | 0.3296 W/m/K and 0.329 W/m/K
672.89 K, 305 kPa | 0.329 W/m/K
672.89 K, 306 kPa | 0.3287 W/m/K
771.9 K, 29994 kPa | 0.3905 W/m/K
771.9 K, 30036 kPa | 0.3906 W/m/K
771.9 K, 49904 kPa | 0.3973 W/m/K
771.9 K, 49932 kPa | 0.3973 W/m/K
771.9 K, 70405 kPa | 0.408 W/m/K
771.9 K, 70444 kPa | 0.4037 W/m/K
771.9 K, 70484 kPa | 0.4065 W/m/K
771.9 K, 98954 kPa | 0.4176 W/m/K
771.9 K, 99008 kPa | 0.417 W/m/K
771.9 K, 99143 kPa | 0.4168 W/m/K
771.9 K, 99205 kPa | 0.4188 W/m/K
771.91 K, 5144 kPa | 0.3835 W/m/K
771.91 K, 10086 kPa | 0.3838 W/m/K
771.91 K, 10092 kPa | 0.3825 W/m/K
771.91 K, 10100 kPa | 0.3836 W/m/K
771.91 K, 10109 kPa | 0.3825 W/m/K
771.91 K, 30014 kPa | 0.3888 W/m/K
771.91 K, 30058 kPa | 0.39 W/m/K
771.91 K, 49879 kPa | 0.3964 W/m/K
771.91 K, 70520 kPa | 0.4053 W/m/K
771.92 K, 378 kPa | 0.3679 W/m/K
771.92 K, 381 kPa | 0.3675 W/m/K
771.92 K, 383 kPa | 0.3671 W/m/K
771.92 K, 386 kPa | 0.3678 W/m/K
771.92 K, 5136 kPa | 0.3832 W/m/K
771.92 K, 5140 kPa | 0.3835 W/m/K
